Measurements taken from patent US20040137500A1, “Novel polypeptide” (Pfizer Inc, priority 2000, published 2004).

Test system: PFI-020
Assay: FLIPR cell-based assay for agonist activation of PFI-020
Parameters: species or system human
Settings: 10 μM; PFI-020-transfected 293 cells (HEK 293 expressing mouse Gα15); Fluo3 FLIPR
Protocol: Fluorescence Imaging Plate Reader (FLIPR®) technology was employed as a means to detect activation of PFI-020 by agonists in a cell-based assay.
5×10^6 Human Embryonic Kidney (HEK) 293 cells expressing the mouse Gα15 gene (from here on called '293 cells′), were transiently transfected with 7.5 μg of PFI-020 (contained within the pcDNA4HIS-max-TOPO (Invitrogen) plasmid) vector, or vector alone, using Lipofectamine Plus® reagent (Gibco BRL) as per the manufacturer's protocol. The plasmid pcDNA4HIS-max-TOPO was used as it contains elements that up-regulate the level of gene transcription over standard pcDNA3.1 vectors. 24 hrs post-transfection, the cells were detached from the flask using Trypsin/EDTA solution (LTI) and seeded into a black sided, poly-D-lysine-treated, 96-well plate (Becton Dickinson) at 5×10^4 cells/well density. […] The FLIPR® processing involved reading the fluorescence for all samples for 2 minutes; during this time the fluorescence baseline was determined for the first 10 seconds. The desired amount of compound was then automatically transferred to the wells and the fluorescence was continuously monitored for the remainder of the time. […]
FIGS. 3, 4, 5 and 6 depict the action of various purinoceptor compounds at a concentration of 10 μM on PFI-020-transfected 293 cells, showing fluorescence intensity versus time (in seconds). […]

| Compound | activation of PFI-020 (fluorescence intensity versus time) |
| --- | --- |
| O=c1ccn([C@@H]2O[C@H](COP(=O)(O)OP(=O)(O)OP(=O)(O)O)[C@@H](O)[C@H]2O)c(=O)[nH]1 [UTP, Uridine triphosphate] | activated |
| Nc1nc(Cl)nc2c1ncn2[C@@H]1O[C@H](COP(=O)([O-])OP(=O)([O-])OP(=O)([O-])[O-])[C@@H](O)[C@H]1O.[Na+].[Na+].[Na+].[Na+] [2-chloro-ATP, 2-chloroadenosine triphosphate tetrasodium] | activated |
